Assay results published in ChEMBL document CHEMBL1147753, “Biphenyl-4-ylcarbamoyl thiophene carboxylic acids as potent DHODH inhibitors” (Bioorg Med Chem Lett, 2006).
pIC50: −log10 of the molar value.

Key:
[1] = target: Dihydroorotate dehydrogenase (quinone), mitochondrial (Homo sapiens, UniProt Q02127); assay: Inhibitory activity against recombinant human DHODH
PBMC = assay: Antiproliferative activity on human PBMC; type: functional, cell-based

Chain of Dihydroorotate dehydrogenase (quinone), mitochondrial (Q02127 whole entry): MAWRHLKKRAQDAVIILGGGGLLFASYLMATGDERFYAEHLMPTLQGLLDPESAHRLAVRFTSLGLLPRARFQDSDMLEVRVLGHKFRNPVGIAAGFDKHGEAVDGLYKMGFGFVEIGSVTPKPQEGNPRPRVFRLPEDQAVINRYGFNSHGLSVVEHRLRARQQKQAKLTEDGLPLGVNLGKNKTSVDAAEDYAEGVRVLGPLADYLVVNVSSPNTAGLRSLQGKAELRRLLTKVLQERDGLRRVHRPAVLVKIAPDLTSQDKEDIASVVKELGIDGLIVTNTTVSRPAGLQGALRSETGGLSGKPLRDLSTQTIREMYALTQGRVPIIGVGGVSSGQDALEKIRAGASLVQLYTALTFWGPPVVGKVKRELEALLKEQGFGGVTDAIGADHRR

Compound	pIC50 [1]	pIC50 (PBMC)
COc1cccc(-c2ccc(NC(=O)c3cocc3C(=O)O)c(F)c2)c1	6.47	
COc1cccc(-c2ccc(NC(=O)c3c(C(=O)O)csc3C(=O)O)c(F)c2)c1	< 6.00	
COc1cccc(-c2ccc(NC(=O)c3cc(C(=O)O)sc3C(=O)O)c(F)c2)c1	< 6.00	
O=C(O)c1cscc1C(=O)Nc1ccc(-c2ccccc2)cc1	6.00	
COc1ccccc1-c1c(F)c(F)c(NC(=O)c2ccsc2C(=O)O)c(F)c1F		5.70
COc1cccc(-c2ccc(NC(=O)c3csc(C(=O)O)c3C(=O)O)c(F)c2)c1	< 6.00	

More lines, in order of rising pIC50 [1], values ahead:

pIC50 [1]	Compound	pIC50 (PBMC)
6.52	O=C(Nc1ccc(-c2ccccc2)cc1)c1ccsc1C(=O)O	
7.36	COc1cccc(-c2ccc(NC(=O)c3ccsc3C(=O)O)c(F)c2)c1	4.70
7.80	CCOc1cccc(-c2cc(F)c(NC(=O)c3cocc3C(=O)O)c(F)c2)c1	4.82
7.92	COc1ccccc1-c1ccc(NC(=O)c2ccsc2C(=O)O)cc1Cl	
8.00	CCOc1ccccc1-c1cc(F)c(NC(=O)c2cscc2C(=O)O)c(F)c1	
8.00	O=C(O)c1cscc1C(=O)Nc1c(F)cc(-c2ccccc2OC(F)(F)F)cc1F	5.70
8.05	CCOc1ccccc1-c1cc(F)c(NC(=O)c2ccsc2C(=O)O)c(F)c1	
8.52	CCOc1cccc(-c2cc(F)c(NC(=O)c3ccsc3C(=O)O)c(F)c2)c1	
